This is an account of results in patent US8629101B2, “Cholesterol derivatives of inhibitors of viral fusion” (priority 2007, dated 2014).

Where a SMILES comes first, the peptide text is derived from it. The star is where a group is joined. X1 = CC(C)CCC[C@@H](C)[C@H]1CC[C@H]2[C@@H]3CC=C4C[C@@H](OC(=O)C*)CC[C@]4(C)[C@H]3CC[C@]12C

Series [1] relates to HIV-HXB2.
The subject of series [2] is HIV-1 (HXB2). Type of series: cell-based. The note with it: read-out: IC50 antiviral activity. The text has this: The antiviral activity of a peptide from the membrane-proximal external region (MPER) of gp41, which also includes the epitope of monoclonal antibody (MAb) 2F5, […] […] Accordingly, when peptide […] […] Moreover, the nature of the lipid was important, since a bis-Lys(N^ε-Palmitoyl) group was ineffective. Details of the assay used can be found in Joyce et al, J. Biol Chem., 2002, 277, 45811-45820.

Series [3] has as its system HIV-HXB2. The series is described as follows: pre-incubation of peptide with P4-2/R5 cells with/without wash, then HIV-HXB2 infection. The note with it: with wash versus no wash. It counts as cell-based, HIV-1.
Description: After 48 h, the antiviral activities of the residual peptides that survive the washing steps were determined by measuring the f3-galactosidase activities within lysed cells as described above.
The nature of series [4]: pharmacokinetics after intraperitoneal injection into the mouse. It counts as in vivo. The note with it: ip. An excerpt: Effect of lipid derivatization on the pharmacokinetic properties of C34-chol. In addition to providing improved antiviral potency, derivatization with cholesterol also extends the half-life of the peptide in vivo.
For series [5], the system named is multiple HIV-1 isolates. The series can be described thus: single-cycle infectivity assay across the panel of viral strains. The conditions noted are these: variety of viral strains.
Description: HIV-1 Infectivity Assay (31). P4-2/R5 cells (HeLa cells expressing endogenous CXCR4 and stably transfected to express CD4 and CCR5 which also contain an integrated β-galactosidase reporter gene under control of an HIV LTR promoter) maintained in phenol red-free Dulbecco's modified Eagle's medium, 10% fetal bovine serum, 1% penicillin/streptomycin were seeded in 96-well plates at 2.5×10^3 cells/well and infected the following day with the HXB2 strain (and a variety of other strains in some cases) of HIV-1 (Advanced Biotechnology Inc., Bethesda, Md.) in the presence of titrations of the test inhibitory peptides at 37° C. After 48 h incubation with both virus and inhibitory peptides, cells were lysed and β-galactosidase was detected using Gal Screen™ chemiluminescent substrate (Applied Biosystems, Foster City, Calif.) according to the manufacturer's instructions. Data were obtained using a Dynex luminometer and IC50 values were calculated by KaleidaGraph.

As for `CCCCCCCCCCCCCCCC(=O)NCCCC[C@H](NC(=O)CNC(=O)[C@H](CO)NC(=O)CNC(=O)[C@H](CC(C)C)NC(=O)[C@H](CC(C)C)NC(=O)[C@H](CCC(=O)O)NC(=O)[C@H](CCC(N)=O)NC(=O)[C@H](CCC(=O)O)NC(=O)[C@H](CC(N)=O)NC(=O)[C@H](CCCCN)NC(=O)[C@H](CCC(=O)O)NC(=O)[C@H](CCC(N)=O)NC(=O)[C@H](CCC(N)=O)NC(=O)[C@H](CC(N)=O)NC(=O)[C@H](CCC(N)=O)NC(=O)[C@H](CO)NC(=O)[C@H](CCC(=O)O)NC(=O)[C@H](CCC(=O)O)NC(=O)[C@@H](NC(=O)[C@H](CC(C)C)NC(=O)[C@H](CO)NC(=O)[C@H](Cc1c[nH]cn1)NC(=O)[C@@H](NC(=O)[C@H](CC(C)C)NC(=O)[C@H](CO)NC(=O)[C@@H](NC(=O)[C@H](Cc1ccc(O)cc1)NC(=O)[C@H](CC(N)=O)NC(=O)[C@H](CC(N)=O)NC(=O)[C@@H](NC(=O)[C@H](CCC(=O)O)NC(=O)[C@H](CCCNC(=N)N)NC(=O)[C@H](CC(=O)O)NC(=O)[C@H](Cc1c[nH]c2ccccc12)NC(=O)[C@H](CCC(=O)O)NC(=O)[C@H](CCSC)NC(=O)[C@H](Cc1c[nH]c2ccccc12)NC(C)=O)[C@@H](C)CC)[C@@H](C)O)[C@@H](C)CC)[C@@H](C)CC)C(N)=O` [Peptide C34-Pam], the “antiviral activity relative to underivatized C34” value in series [1] is recorded as “comparable activity to underivatized C34”.

Regarding enfuvirtide, the IC50 in series [1] (read-out: IC50 viral infectivity, mean ± SEM of three independent experiments (Table 2)) was found to be 0.000692 ± 0.000245 µM.

As for `CC[C@H](C)[C@H](NC(=O)[C@H](CC(C)C)NC(=O)[C@H](CO)NC(=O)[C@H](Cc1c[nH]cn1)NC(=O)[C@@H](NC(=O)[C@H](CC(C)C)NC(=O)[C@H](CO)NC(=O)[C@@H](NC(=O)[C@H](Cc1ccc(O)cc1)NC(=O)[C@H](CC(N)=O)NC(=O)[C@H](CC(N)=O)NC(=O)[C@@H](NC(=O)[C@H](CCC(=O)O)NC(=O)[C@H](CCCNC(=N)N)NC(=O)[C@H](CC(=O)O)NC(=O)[C@H](Cc1c[nH]c2ccccc12)NC(=O)[C@H](CCC(=O)O)NC(=O)[C@H](CCSC)NC(=O)[C@H](Cc1c[nH]c2ccccc12)NC(=O)CNC(=O)[C@H](CO)NC(=O)CNC(=O)[C@H](CSCC(=O)O[C@H]1CC[C@@]2(C)C(=CC[C@H]3[C@@H]4CC[C@H]([C@H](C)CCCC(C)C)[C@@]4(C)CC[C@@H]32)C1)NC(C)=O)[C@@H](C)CC)[C@@H](C)O)[C@@H](C)CC)C(=O)N[C@@H](CCC(=O)O)C(=O)N[C@@H](CCC(=O)O)C(=O)N[C@@H](CO)C(=O)N[C@@H](CCC(N)=O)C(=O)N[C@@H](CC(N)=O)C(=O)N[C@@H](CCC(N)=O)C(=O)N[C@@H](CCC(N)=O)C(=O)N[C@@H](CCC(=O)O)C(=O)N[C@@H](CCCCN)C(=O)N[C@@H](CC(N)=O)C(=O)N[C@@H](CCC(=O)O)C(=O)N[C@@H](CCC(N)=O)C(=O)N[C@@H](CCC(=O)O)C(=O)N[C@@H](CC(C)C)C(=O)N[C@@H](CC(C)C)C(N)=O` [Chol-C34], the “decrease of antiviral activity compared to underivatized C34” value in series [1] (cholesterol at the N-terminus) is on record as 50 fold.

In the case of `CC(=O)N[C@@H](CCC(=O)O)C(=O)N[C@@H](CC(C)C)C(=O)N[C@@H](CC(C)C)C(=O)N[C@@H](CCC(=O)O)C(=O)N[C@@H](CC(C)C)C(=O)N[C@@H](CC(=O)O)C(=O)N[C@@H](CCCCN)C(=O)N[C@@H](Cc1c[nH]c2ccccc12)C(=O)N[C@@H](C)C(=O)N[C@@H](CO)C(=O)N[C@@H](CC(C)C)C(=O)N[C@@H](Cc1c[nH]c2ccccc12)C(=O)N[C@@H](CSCC(=O)O[C@H]1CC[C@@]2(C)C(=CC[C@H]3[C@@H]4CC[C@H]([C@H](C)CCCC(C)C)[C@@]4(C)CC[C@@H]32)C1)C(N)=O` (Ac-ELLELDKWASLWC(X1)-NH2), the IC50 in series [2] came out at 5.85 µM.

For the compound `CC[C@H](C)[C@H](NC(=O)[C@H](CC(C)C)NC(=O)[C@H](CO)NC(=O)[C@H](Cc1c[nH]cn1)NC(=O)[C@@H](NC(=O)[C@H](CC(C)C)NC(=O)[C@H](CO)NC(=O)[C@@H](NC(=O)[C@H](Cc1ccc(O)cc1)NC(=O)[C@H](CC(N)=O)NC(=O)[C@H](CC(N)=O)NC(=O)[C@@H](NC(=O)[C@H](CCC(=O)O)NC(=O)[C@H](CCCNC(=N)N)NC(=O)[C@H](CC(=O)O)NC(=O)[C@H](Cc1c[nH]c2ccccc12)NC(=O)[C@H](CCC(=O)O)NC(=O)[C@H](CCSC)NC(=O)[C@H](Cc1c[nH]c2ccccc12)NC(C)=O)[C@@H](C)CC)[C@@H](C)O)[C@@H](C)CC)C(=O)N[C@@H](CCC(=O)O)C(=O)N[C@@H](CCC(=O)O)C(=O)N[C@@H](CO)C(=O)N[C@@H](CCC(N)=O)C(=O)N[C@@H](CC(N)=O)C(=O)N[C@@H](CCC(N)=O)C(=O)N[C@@H](CCC(N)=O)C(=O)N[C@@H](CCC(=O)O)C(=O)N[C@@H](CCCCN)C(=O)N[C@@H](CC(N)=O)C(=O)N[C@@H](CCC(=O)O)C(=O)N[C@@H](CCC(N)=O)C(=O)N[C@@H](CCC(=O)O)C(=O)N[C@@H](CC(C)C)C(=O)N[C@@H](CC(C)C)C(=O)NCC(=O)N[C@@H](CO)C(=O)NCC(=O)N[C@@H](CSCC(=O)O[C@H]1CC[C@@]2(C)C(=CC[C@H]3[C@@H]4CC[C@H]([C@H](C)CCCC(C)C)[C@@]4(C)CC[C@@H]32)C1)C(N)=O` [Peptide C34-Chol], in series [3], the IC50 fold change is 7 fold. For the same compound, in series [4] ([…], 24 h, versus IC50 7 pM), the “plasma concentration at 24 h as multiple of the measured IC50” value is greater than 500 fold. In series [4] (plasma, 3.5 mg/kg), the AUC(0-t) amounted to 11.5 µM·h, the Cmax amounted to 3100 nM and the Tmax was 4 h. Also, the CL/F in series [4] (plasma, 3.5 mg/kg, read-out: CI/F) was found to be 0.6 mL/min/kg. For the same compound, the level at time molar at 24 h in series [4] (plasma, intraperitoneal, 3.5 mg/kg, 24 h, read-out: plasma concentration still detectable after 24 h) is roughly 60 nM. In series [1], the “increase of antiviral potency over C34 and C34-Aceta” value came out at 50 fold; the “potency relative to enfuvirtide/FUZEON” value is roughly 100 fold. In series [5], the “breadth of antiviral response” value is “comparable IC50 in all strains” and the “potency relative to underivatized or cys-alkylated C34 across the whole panel” value was roughly 50 fold.
